# Patent US6407204B1 (priority 1997, dated 2002)
# “Also recorded” adds a separate entry of the source.
# Key:
# Male Sprague-Dawley rats [1] = conditions: rat, in vivo
# Male Sprague-Dawley rats [2] = conditions: rat, in vivo; remark: listed apart in the source
# formalin test = conditions: literature; ifenprodil at a high dose; cited from earlier work
# NMDA receptor = conditions: literature, cited from earlier work; for motor impairment: relative to analgesic doses
# [3] = tested on: NMDA polyamine site, forebrain membrane preparations; conditions: cited from earlier work
# [4] = tested on: cholinergic neurons of the QA lesioned striatum; conditions: rat, in vivo
# [5] = tested on: GABAergic neurons of the QA lesioned striatum; conditions: rat, in vivo
compound,measurement,setting,value
C[C@]12N[C@H](Cc3ccccc31)c1ccccc12 [MK-801],dose required to inhibit / significantly attenuate phase II flinches,Male Sprague-Dawley rats [1],30 µg
same,side effects at the dose attenuating phase II flinches,Male Sprague-Dawley rats [2],"side effects, including head weaving"
same,toxicity at doses that decreased flinches,Male Sprague-Dawley rats [2],clear toxicity
same,analgesic effect in the formalin test,formalin test,submaximal analgesic effect
same,analgesic activity,NMDA receptor,show analgesic activity
same,motor impairment,NMDA receptor,show motor impairment at equivalent doses
CC(C(O)c1ccc(O)cc1)N1CCC(Cc2ccccc2)CC1 (stereo not shown) [ifenprodil],analgesic effect in the formalin test,formalin test,did not have an analgesic effect; also recorded: no effect
"c1ccc(C2(N3CCCCC3)CCCCC2)cc1 [phenylcyclidine (PCP), phenylcyclidine]",analgesic activity,NMDA receptor,show analgesic activity
same,motor impairment,NMDA receptor,show motor impairment at equivalent doses
NCCCNCCCCNCCCN [spermine],maximal effective concentration for enhancement of [3H]MK-801 binding,[3],about 20 μM
Gly-Glu-Gla-Gla-Leu-Gln-Gla-Asn-Gln-Gla-Leu-Ile-Arg-Gla-Lys-Ser-Asn-NH2 [Conantokin G],dose required to inhibit / significantly attenuate phase I flinches,Male Sprague-Dawley rats [1],1.0 µg
same,dose required to inhibit / significantly attenuate phase II flinches,Male Sprague-Dawley rats [1],0.05 µg
same,QA lesion-induced loss of ChAT activity,[4],completely blocked
same,QA lesion-induced loss of GAD activity,[5],completely blocked; also recorded: complete prevention
Gly-Glu-Gla-Gla-Val-Ala-Lys-Met-Ala-Ala-Glu-Leu-Ala-Arg-Glu-Asn-Ile-Ala-Lys-Gly-Cys-Lys-Val-Asn-Cys-Tyr-Pro [Conantokin R],dose required to inhibit / significantly attenuate phase I flinches,Male Sprague-Dawley rats [1],3.3 µg
same,dose required to inhibit / significantly attenuate phase II flinches,Male Sprague-Dawley rats [1],3.3 µg
β-endorphin,"dose at which maximal possible effect was observed, phase I",Male Sprague-Dawley rats [1],1.0 µg
same,"dose at which maximal possible effect was observed, phase II",Male Sprague-Dawley rats [1],3.3 µg
same,dose required to inhibit / significantly attenuate phase I flinches,Male Sprague-Dawley rats [1],0.3 µg
same,dose required to inhibit / significantly attenuate phase II flinches,Male Sprague-Dawley rats [1],0.6 µg
same,effect of the single agent alone,Male Sprague-Dawley rats [1],no effect
same,effect on flinches in both phase I and phase II,Male Sprague-Dawley rats [1],dose-dependent decrease in flinches
same,effect on phase I flinches,Male Sprague-Dawley rats [1],no effect
same,effect on phase II flinches,Male Sprague-Dawley rats [1],no effect
same,overt side effects,Male Sprague-Dawley rats [2],overt signs of sedation and motor impairment
